Data published in paper PMC4406087, “Remaining challenges in cellular flavin cofactor homeostasis and flavoprotein biogenesis” (Frontiers in Chemistry, 2015).

Tests used:
[1] = target: T1, 6His-hFADS2 (Homo sapiens, UniProt Q8NFF5); test: spectrofluorimetric FAD synthesis assay, Dixon plot; assay type: biochemical; settings: 50 mM Tris-HCl pH 7.5, 5 mM MgCl2, 37°C; product inhibition: competitive vs FMN, non-competitive vs ATP
T1 construct: gene FLAD1; recombinant 6His-tagged cytosolic isoform 2, purified
T1 sequence (Q8NFF5 98-587 limits assumed): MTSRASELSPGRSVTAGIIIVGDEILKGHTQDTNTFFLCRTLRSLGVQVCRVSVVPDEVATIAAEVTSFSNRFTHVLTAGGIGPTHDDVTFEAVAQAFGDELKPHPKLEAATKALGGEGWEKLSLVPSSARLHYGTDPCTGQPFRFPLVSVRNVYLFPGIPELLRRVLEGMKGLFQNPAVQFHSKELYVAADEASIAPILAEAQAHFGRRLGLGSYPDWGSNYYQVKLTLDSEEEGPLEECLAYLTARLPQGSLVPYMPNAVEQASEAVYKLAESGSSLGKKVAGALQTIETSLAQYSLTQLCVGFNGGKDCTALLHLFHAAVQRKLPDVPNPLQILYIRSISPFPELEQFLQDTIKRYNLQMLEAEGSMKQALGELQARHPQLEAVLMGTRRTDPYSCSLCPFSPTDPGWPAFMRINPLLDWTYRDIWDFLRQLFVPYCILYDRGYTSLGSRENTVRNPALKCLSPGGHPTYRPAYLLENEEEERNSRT

[2] = target: T1, 6His-hFADS2; test: flavin fluorescence of protein band on SDS-PAGE under UV; assay type: biochemical; settings: tightly but not covalently bound, 1 mol FAD per monomer; fluorescence lost on transfer to apo-Me2GlyDH
[3] = target: T2, 6His-apo-Me2GlyDH (Rattus norvegicus, UniProt Q63342); test: as above; assay type: binding; settings: covalent; 20 μM FAD, 50 mM Tris-HCl pH 7.5, 5 mM MgCl2, 5 mM ATP, 0.5% Triton X-100, 37°C; stimulated by rat liver mitochondrial matrix
T2 construct: gene Dmgdh; 6His-tagged, E. coli, purified apo-form
T2 sequence (Q63342 44-857): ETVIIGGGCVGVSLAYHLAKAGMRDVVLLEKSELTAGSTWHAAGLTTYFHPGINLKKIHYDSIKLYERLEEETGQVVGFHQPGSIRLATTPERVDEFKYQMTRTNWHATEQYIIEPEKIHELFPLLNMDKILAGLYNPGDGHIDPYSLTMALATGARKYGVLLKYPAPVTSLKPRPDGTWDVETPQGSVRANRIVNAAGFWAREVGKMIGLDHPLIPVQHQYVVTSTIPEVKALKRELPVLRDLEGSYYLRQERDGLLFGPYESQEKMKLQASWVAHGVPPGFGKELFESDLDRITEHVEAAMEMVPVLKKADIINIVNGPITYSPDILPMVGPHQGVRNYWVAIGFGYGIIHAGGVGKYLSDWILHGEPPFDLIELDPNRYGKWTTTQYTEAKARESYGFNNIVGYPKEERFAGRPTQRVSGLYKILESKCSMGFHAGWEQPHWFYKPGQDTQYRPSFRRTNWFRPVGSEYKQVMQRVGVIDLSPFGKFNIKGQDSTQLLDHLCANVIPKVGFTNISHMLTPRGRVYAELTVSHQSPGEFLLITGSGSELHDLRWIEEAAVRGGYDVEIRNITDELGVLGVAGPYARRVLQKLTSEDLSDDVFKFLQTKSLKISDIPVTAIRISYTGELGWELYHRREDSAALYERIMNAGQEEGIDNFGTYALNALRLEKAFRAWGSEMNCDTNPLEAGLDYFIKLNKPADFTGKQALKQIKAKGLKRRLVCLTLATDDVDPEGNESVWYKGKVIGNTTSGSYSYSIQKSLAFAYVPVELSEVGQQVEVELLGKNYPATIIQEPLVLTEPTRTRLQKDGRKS

SMILES | spectrofluorimetric FAD synthesis assay, Dixon plot [1] | flavin fluorescence of protein band on SDS-PAGE under UV [2] | flavin fluorescence of protein band on SDS-PAGE under UV [3]
O=P(O)(O)OP(=O)(O)O [PPi] | the inhibition by PPi against FMN is consistent with competitive inhibition | – | –
Cc1cc2nc3c(=O)[nH]c(=O)nc-3n(C[C@H](O)[C@H](O)[C@H](O)COP(=O)(O)OP(=O)(O)OC[C@H]3O[C@@H](n4cnc5c(N)ncnc54)[C@H](O)[C@@H]3O)c2cc1C [FAD] | – | hFADS loses its fluorescence upon incubation with apo-Me2GlyDH | mitochondrial matrix is able to stimulate apo-Me2GlyDH flavinylation
